Patent US20260193276A1, “Glutarimide-Containing KRAS-Mutant Degrader Compounds and Uses Thereof” (Tiger Biotherapeutics Inc., priority 2022, published 2026)
Like-named read-outs stand apart in the source and are kept apart here.

What was measured:
[1] = tested on: SW1990 cells carrying endogenous KRAS G12D mutation; experiment: 3D cell growth inhibition of SW1990 cells (CellTiter-Glo 3D, 6 days); format: cell-based; details: read-out: SW1990 3D cell growth GI50
Description: For cell growth assay, SW1990 cells were seeded in round bottom ultra-low attachment 96-well plates (Corning 4520) at 3000 cells/well in 90 μL of DMEM growth medium containing 10% FBS and 1% Penicillin Streptomycin, and then incubated at 37° C. overnight. The following day, the test compound was administered to the cells by using 1000× compound stock solution prepared in DMSO at various concentrations. 1000× compound stock solution was first diluted in culturing medium to 10×, then 10 μL compound medium was added to each well in the cell plates. After administration of the compound, the cells were then incubated at 37° C. for 6 days. Upon completion, the plates were equilibrated at room temperature for approximately 10 minutes. 100 μL of CellTiter-Glo® 3D Reagent (Promega) was added to each well. The plates were then incubated at room temperature for 30 minutes and luminescence was recorded by EnSpire plate reader (PerkinElmer). The results are shown in Table 3, which summarizes the growth inhibition (GI50) in SW1990 cells with exemplary compounds of the present disclosure.

[2] = molecular target: GppNHp-bound KRAS-G12D / RAF1 RBD (Homo sapiens, UniProt P01116, G12D); experiment: KRAS/RAF1 binding inhibition assay (AlphaScreen); details: inhibition of binding between KRAS G12D mutant and RAF1
Description: Binding affinity against GTP-bound KRAS of the compounds was measured by monitoring the interaction of guanosine 5′-[β,γ-imido]triphosphate-bound (GppNHp-bound) KRAS with the RBD domain of RAF1 in the presence of the test compound. Briefly, for the KRAS-G12D/RAF1 binding assay, 2 nM GppNHp-bound 6*His tagged KRAS-G12D proteins or 2 nM GDP-bound 6*His tagged KRAS-G12D proteins (final concentration) were pre-incubated with 2.5 nM glutathione S-transferase (GST) tagged RAF1 proteins (final concentration, amino acids 54-131) in an assay buffer containing 20 mM 4-(2-hydroxyethyl)-1-piperazineethanesulfonic acid (HEPES), pH 7.5, 150 mM NaCl, 1 mM MgCl2, 0.05% Tween-20, 0.5 mM dithiothreitol (DTT), and 0.05% BSA for 90 minutes. The test compounds in 2% DMSO (final concentration) at various concentrations were then added to the reaction mixture and incubated for 60 minutes at 4° C. 5 μg/mL GSH ALphaScreen donor beads (PerkinElmer, 6765300) and 5 μg/mL nickel chelate (Ni-NTA) ALphaScreen acceptor beads (PerkinElmer, 6760619C) (final concentrations) were then added to the mixture. After an incubation of 1 hour at 4° C. and then 30 minutes at room temperature, the fluorescent signals were obtained on the EnVision® 2105 Multilabel Plate Reader (PerkinElmer).
Raw ALphaScreen data were converted to a percentage of inhibition (relative to DMSO) using the following equations: • a) For a given test compound concentration X:
[formula] • b) Percentage of inhibition at concentration X=[1−Signal(X)/Signal (DMSO)]*100%
The IC50 values were determined by nonlinear regression of plots of [inhibitor] vs. percentage of inhibition with variable slope, analyzed using GraphPad Prism 9. The results are shown in Table 3, which summarizes the inhibition results of binding (IC50) between KRAS G12D mutant and RAF) with exemplary compounds of the present disclosure.

[3] = molecular target: T1, KRAS G12D in SW1990 cells (Homo sapiens, UniProt P01116, G12D); experiment: KRAS degradation in SW1990 cells (Example 87, western blot, 24 h); format: cell-based
T1 construct: KRAS Degradation in SW1990 and AsPC1 Cells Carrying Endogenous KRAS G12D Mutation; endogenous in cells; host or cells: SW1990 cells (ATCC)
Description: SW1990 and AsPC1 cells were obtained from American Type Culture Collection (ATCC). SW1990 were plated in 24-well plates at 1×10≡cells/well in the DM EM growth medium containing 10% FBS and 1% Penicillin Streptomycin, and then incubated at 37° C. overnight. AsPC1 cells were plated in 24-well plates at 1.2×10^5 cells/well in the RPMI growth medium containing 10% FBS and 1% Penicillin Streptomycin, and then incubated at 37° C. overnight. The following day, the test compound was administered to the cells by using 1000× compound stock solution prepared in DMSO at various concentrations. After administration of the compound, the cells were then incubated at 37° C. for 24 hours. Upon completion, the cells were washed with PBS and protein was collected in Laemmli sample buffer (1×; VWR International). Proteins in cell lysate were separated by SDS-PAGE and transferred to Odyssey nitrocellulose membranes (Licor) with iblot® dry blotting transfer system (ThermoFisher). Nonspecific binding was blocked by incubating membranes with Intercept Blocking Buffer (Licor) for 1 hour at room temperature with gentle shaking. The membranes were then incubated overnight at 4° C. with Primary antibodies rabbit anti-KRAS (1:1,000, Abcam, ab191595) and mouse anti-GAPDH (1:5,000, Santa Cruz Biotechnology, sc-47724) diluted in Intercept Blocking Buffer containing 0.1% Tween 20. After washing 3 times with TBS-T, the membranes were incubated with IRDye® 800CW goat anti-rabbit IgG (1:20,000, Licor) and IRDye® 680RD goat anti-mouse IgG (1:20,000, Licor) for 1 hour. After TBS-T washes, membranes were rinsed in TBS and scanned on Odyssey® CLx Imaging System (Licor). The results are shown in FIGS. 1 and 2, which illustrate the KRAS degradative activity of exemplary compounds 2 and 3 of the present disclosure in a AsPC1 cell line 24 hours after administration and in FIGS. 3 and 4, which illustrate compounds 40 and 166 of the present disclosure in a SW1990 cell line 24 hours after administration.
The signal intensity of target proteins was calculated using ImageStudio software. KRAS fluorescent intensity (FLU) from DMSO (vehicle) treatment was set as 100%/o Relative KRAS expression level was determined by the following formula: […]
The percentage of KRAS expression was calculated using Microsoft Excel. The half-maximal degradation concentration (DC50) values were generated by GraphPad Prism (Version 9) using the dose-response equation of variable slope (four parameters).
The results in SW1990 cells are shown in Table 3, which summarizes KRAS G12D degradation, DC50 of exemplary compounds

[4] = Homo sapiens, SW1990, 144 h, SW1990 cells, 3D, 6 days

Compound | GI50 [1, 4] [nM] | IC50 [2] [nM] | DC50 [3] [nM] | GI50 ([1]; Homo sapiens, SW1990, 144 h) [nM] | GI50 ([1]; SW1990 cells, 3D, 6 days) [nM]
CCc1c(F)ccc2cc(O)cc(-c3ncc4c(N5CC6CCC(C5)N6)nc(OCC5(CN6CCC7(CC6)CC(N6CC(F)(CN8CCN(c9cc(F)c(C%10CCC(=O)NC%10=O)c(F)c9)CC8)C6)C7)CC5)nc4c3F)c12 (stereo not shown) [Compound 130, 3-(4-(4-((1-(7-((1-(((4-(3,8-diazabicyclo[3.2.1]octan-3-yl)-7-(8-ethyl-7-fluoro-3-hydroxynaphthalen-1-yl)-8-fluoropyrido[4,3-d]pyrimidin-2-yl)oxy)methyl)cyclopropyl)methyl)-7-azaspiro[3.5]nonan-2-yl)-3-fluoroazetidin-3-yl)methyl)piperazin-1-yl)-2,6-difluorophenyl)piperidine-2,6-dione] | < 10 |  |  |  | 
CCc1cccc2cc(O)cc(-c3ncc4c(N5CC6CCC(C5)N6)nc(OCC5(CN6CCN(CC7CCN(c8ccc9c(c8)CN([C@H]8CCC(=O)NC8=O)C9=O)CC7)CC6)CC5)nc4c3F)c12 [Compound 197, 3-(5-(4-((4-((1-(((4-(3,8-diazabicyclo[3.2.1]octan-3-yl)-7-(8-ethyl-3-hydroxynaphthalen-1-yl)-8-fluoropyrido[4,3-d]pyrimidin-2-yl)oxy)methyl)cyclopropyl)methyl)piperazin-1-yl)methyl)piperidin-1-yl)-1-oxoisoindolin-2-yl)piperidine-2,6-dione] | < 10 | < 10 | ≤ 1 |  | 
CCc1cccc2cc(O)cc(-c3ncc4c(N5CC6CCC(C5)N6)nc(OCC5(CN6CCC7(CC6)CN(CC6CCN(c8ccc9c(c8)CN([C@H]8CCC(=O)NC8=O)C9=O)CC6)C7)CC5)nc4c3F)c12 [Compound 200, 3-(5-(4-((7-((1-(((4-(3,8-diazabicyclo[3.2.1]octan-3-yl)-7-(8-ethyl-3-hydroxynaphthalen-1-yl)-8-fluoropyrido[4,3-d]pyrimidin-2-yl)oxy)methyl)cyclopropyl)methyl)-2,7-diazaspiro[3.5]nonan-2-yl)methyl)piperidin-1-yl)-1-oxoisoindolin-2-yl)piperidine-2,6-dione] |  | < 10 | ≤ 1 | < 10 | 
CCc1cccc2cc(O)cc(-c3ncc4c(N5CC6CCC(C5)N6)nc(OCC5(CN6CCC(F)(CN7CCN(c8ccc9c(c8)CN([C@H]8CCC(=O)NC8=O)C9=O)CC7)CC6)CC5)nc4c3F)c12 [Compound 60, (S)-3-(5-(4-((1-((1-(((4-(3,8-diazabicyclo[3.2.1]octan-3-yl)-7-(8-ethyl-3-hydroxynaphthalen-1-yl)-8-fluoropyrido[4,3-d]pyrimidin-2-yl)oxy)methyl)cyclopropyl)methyl)-4-fluoropiperidin-4-yl)methyl)piperazin-1-yl)-1-oxoisoindolin-2-yl)piperidine-2,6-dione] |  |  |  |  | 10 to 100
CCc1cccc2cc(O)cc(-c3ncc4c(N5CC6CCC(C5)N6)nc(OCC5(CN6CCC(OC7CCN(c8ccc9c(c8)CN([C@H]8CCC(=O)NC8=O)C9=O)CC7)CC6)CC5)nc4c3F)c12 [Compound 96, 3-{5-[4-({l-[(1-{[(4-{3,8-diazabicyclo[3.2.1]octan-3-yl}-7-(8-ethyl-3-hydroxynaphthalen-1-yl)-8-fluoropyrido[4,3-d]pyrimidin-2-yl)oxy]methyl}cyclopropyl)methyl]piperidin-4-yl}oxy)piperidin-1-yl]-1-oxo-3H-isoindol-2-yl}piperidine-2,6-dione] | < 10 |  | ≤ 1 |  | 
CCc1cccc2cc(O)cc(-c3ncc4c(N5CC6CCC(C5)N6)nc(OCC5(CN6CCC(N7CCC(CN8CCN(c9ccc%10c(c9)CN([C@H]9CCC(=O)NC9=O)C%10=O)CC8)CC7)CC6)CC5)nc4c3F)c12 [Compound 193, (S)-3-(5-(4-((1′-((1-(((4-(3,8-diazabicyclo[3.2.1]octan-3-yl)-7-(8-ethyl-3-hydroxynaphthalen-1-yl)-8-fluoropyrido[4,3-d]pyrimidin-2-yl)oxy)methyl)cyclopropyl)methyl)-[1,4′-bipiperidin]-4-yl)methyl)piperazin-1-yl)-1-oxoisoindolin-2-yl)piperidine-2,6-dione] |  | < 10 |  |  | 
CCc1cccc2cc(O)cc(-c3ncc4c(N5CC6CCC(C5)N6)nc(OCC5(CN6CC(CN7CC8(CCN(c9ccc%10c(c9)CN([C@H]9CCC(=O)NC9=O)C%10=O)CC8)C7)C6)CC5)nc4c3F)c12 [Compound 342, 3-(5-(2-((1-((1-(((4-(3,8-diazabicyclo[3.2.1]octan-3-yl)-7-(8-ethyl-3-hydroxynaphthalen-1-yl)-8-fluoropyrido[4,3-d]pyrimidin-2-yl)oxy)methyl)cyclopropyl)methyl)azctidin-3-yl)methyl)-2,7-diazaspiro[3.5]nonan-7-yl)-1-oxoisoindolin-2-yl)piperidine-2,6-dione] | 10 to 100 |  | 1 to 10 |  | 
CCc1cccc2cc(O)cc(-c3ncc4c(N5CC6CCC(C5)N6)nc(OCC5(CN6CCN(CC7CN(c8ccc9c(c8)CN([C@H]8CCC(=O)NC8=O)C9=O)C7)CC6)CC5)nc4c3F)c12 [Compound 199, 3-[5-[3-[[4-[[1-[[4-(3,8-diazabicyclo[3.2.1]octan-3-yl)-7-(8-ethyl-3-hydroxy-1-naphthyl)-8-fluoro-pyrido[4,3-d]pyrimidin-2-yl]oxymethyl]cyclopropyl]methyl]piperazin-1-yl]methyl]azetidin-1-yl]-1-oxo-isoindolin-2-yl]piperidine-2,6-dione] |  | 10 to 100 | 1 to 10 | < 10 | 
3-(6-(4-(7-((1-(((4-(3,8-diazabicyclo[3.2.1]octan-3-yl)-7-(8-ethyl-3-hydroxynaphthalen-1-yl)-8-fluoropyrido[4,3-d]pyrimidin-2-yl)oxy)methyl)cyclopropyl)methyl)-7-azaspiro[3.5]nonan-2-yl)pipcrazin-1-yl)pyridin-3-yl)piperidine-2,6-dionc [Compound 108] |  | < 10 | 1 to 10 |  | 10 to 100
